The values below come from PubChem BioAssay (NCI).

Values joined by “and” are separate entries in the source; they are usually repeats but may differ in a detail not shown here. Equal entries are not always repeated.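 Protocol summary: plate cells (96-well), add compound at 5 concentrations, incubate 48 h, interpolate endpoints linearly. The concentration for 50% growth inhibition is given as GI50. Definition used: TGI = concentration required for complete inhibition of growth.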 Some results are limits rather than exact numbers.

Common to all, as to experiment: NCI tumour cell line growth inhibition, 48 h
Assay [1] relates to DLD-1 colon.
Assay [2] has as its system DMS 114 small cell lung.
The subject of assay [3] is DMS 273 small cell lung.
Assay [4] has as its system KM20L2 colon.
In assay [5] the test system is M19-MEL melanoma.
Assay [6] deals with RXF-631 renal.
Assay [7] relates to SNB-78 CNS.
The test system of assay [8] is XF 498 CNS.
Assay [9] deals with MDA-N.
In assay [10] the test system is SN12K1 renal.

With `O=c1nc(N2CCCC2)nc(N2CCCC2)s1`, the TGI in [1], in assay [2], in assay [3], in assay [4], in [5] and in assay [6] was above 100 µM each time. Moreover, the TGI in assay [7] and in [8] was above 100 µM throughout.

Turning to `OCCCc1cnco1`, the TGI in assay [1], in assay [3], in [4], in [5], in assay [7] and in assay [8] was above 100 µM each time.

Regarding `CC(=O)N(CCN1C(=O)c2ccccc2C1=O)CCN1C(=O)c2ccccc2C1=O`, the TGI in assay [1], in assay [2], in assay [3], in assay [4], in assay [5] and in assay [7] was above 100 µM each time. This compound registered a TGI in assay [8] above 100 µM.

Turning to `C=C1C(=O)c2cc3c(cc2C(c2cc(OC)c(OC)c(OC)c2)[C@@H]1C(=O)O)OCO3` (stereo not given in full), the TGI in assay [1], in [2], in [5] and in assay [7] was above 100 µM each time.

In turn, `C/C(=N/NC(=S)N1CC2CCC(CC2)C1)c1cnccn1` came in with a TGI in [9] of 28.7 µM.

With `CC1(C)OC2C(CO)OC(n3ccc(N)nc3=O)C2O1` (stereo not given), the TGI in assay [9] is above 100 µM.

In assay [9], `NS(=O)(=O)c1ccc(N=C2C(=O)Nc3ccccc32)cc1` came in with a TGI above 100 µM.

As for `O=C(Cc1ccccc1)N/N=C(/c1nc2ccc([N+](=O)[O-])cc2[nH]c1=O)C(O)c1ccccc1Cl` (stereo not given), the TGI in assay [1], in assay [5], in [7] and in assay [8] was above 100 µM throughout.

On to `CC(=O)OCC1OC([Se-])C(OC(C)=O)C(OC(C)=O)C1OC(C)=O.N#CCC[PH+](CCC#N)CCC#N.[Au+]` (stereo not given), for which the GI50 was 7.78 µM in assay [1]; 4.09 µM in assay [3]; 7 µM in assay [4]; 3.11 µM in assay [5]; 16 µM in assay [6]; 20.1 µM in assay [7]. Further, the GI50 in assay [8] was 8.09 µM. For the same compound, the TGI was above 63.6 µM in assay [1]; 49.7 µM in [3]; 41.1 µM in [4]; above 27.9 µM in assay [5]; above 100 µM in assay [6]; 79.3 µM in assay [7]. Further, the TGI in [8] was 34.6 µM.

Consider `COc1cc(C2C(C(=O)O)=C(COC(C)=O)Oc3cc4c(cc32)OCO4)cc(OC)c1OC(C)=O` (stereo not given), for which the TGI in assay [1], in assay [2], in [3], in assay [4], in [5] and in [6] was above 100 µM in each case. Moreover, the TGI in assay [7] and in assay [8] was above 100 µM each time.

As to `O=C(N/C=C/C=C/Sc1ccccc1)OCc1ccccc1`, the TGI in assay [1] is 29 µM; in assay [2], 32.3 µM; in [3] it was 31.4 µM; in assay [4], 31 µM; in [5], 31.5 µM; in assay [6] it was 39.3 µM. The results for the TGI in [7] and in [8] were above 100 µM and 43.9 µM, respectively.

For the compound `NC(CO)c1ccc(OCc2ccccc2)cc1` (stereo not given), the TGI in [1], in assay [2], in assay [3], in assay [4], in assay [5] and in assay [7] was above 100 µM in each case. Moreover, the TGI in [8] is above 100 µM.

For `O=[N+]([O-])c1ccc(/C(Cl)=C/c2ccc(/C=C(\Cl)c3ccc([N+](=O)[O-])cc3[N+](=O)[O-])cc2)c([N+](=O)[O-])c1`, the TGI in assay [1], in assay [2], in assay [3], in assay [5], in assay [6] and in assay [7] was above 100 µM in each case.

`COC1=CC(=O)OC(/C=C(C)/C=C/C2=C(C)CCCC2(C)C)C1` (stereo not given): the TGI in assay [1], in [2], in [3], in assay [4], in assay [5] and in assay [7] was above 100 µM each time.

Take `CN(C)c1ccc(/C=c2\sc3nnc(-c4cccnc4)n3c2=O)cc1`: the TGI in assay [1], in assay [2], in [3], in assay [4], in assay [5] and in [7] was above 100 µM throughout. Also, in [8], the TGI was above 100 µM.

For the compound `CCc1nc2ccccc2c(=O)n1/N=C(\N=Nc1ccc(Cl)cc1)c1ccccc1`, the TGI is above 100 µM in assay [1]; 59.3 µM in assay [2]; 50 µM in assay [3]; 27.7 µM in assay [4]; above 100 µM in assay [5]; 71.1 µM in assay [7].

As to `O=C(O)c1ccc(C(=O)O)c(C(=O)O)c1.[NH-]C1CCCCC1[NH-].[Pt+2]`, the GI50 in assay [1] is 5.25 µM; in [3] it was 0.417 µM; in assay [4], 0.768 µM; in [5], 1.41 µM; in assay [9], 1.15 µM; in assay [10] it was 2.71 µM. Moreover, the GI50 was 24.6 µM in [7] and 1.8 µM in [8]. The TGI in assay [1] is above 87.4 µM; in [3], 9.31 µM; in [4], 27.7 µM; in assay [5], 46 µM; in assay [9] it was 24.7 µM; in [10], 19 µM. Further, the TGI in [7] was 99.9 µM; in assay [8], 16.5 µM.

With `CCCCN(CCCC)CC(C(=O)Nc1ccc([N+](=O)[O-])cc1[N+](=O)[O-])/C(C)=N\NC(=O)C[N+](C)(C)C` (stereo not given), the TGI is above 100 µM in [1]; above 100 µM in [2]; 31.2 µM in assay [3]; above 100 µM in assay [4]; above 100 µM in assay [5]; above 100 µM in assay [6]. For the same compound, the TGI in [7] and in assay [8] was above 100 µM each time.

For `O=C1NC(=O)C2C1C1C=C3c4ccccc4N(c4ccccc4)C32[C@H]2C(=O)NC(=O)[C@@H]12` (stereo not given in full), the TGI in assay [1], in assay [2], in assay [3], in assay [4], in assay [5] and in [7] was above 100 µM throughout.

As to `C#CCn1c(=O)c2cccnc2n(CC#C)c1=O`, the TGI in [1], in assay [3], in assay [7] and in [8] was above 100 µM in each case.

Turning to `Cn1c2cc([N+](=O)[O-])ccc2c(=O)c2c(O)cc3c(c21)C=CC(C)(C)O3`, the TGI in assay [1] is above 100 µM; in assay [3], above 100 µM; in assay [4], above 100 µM; in assay [7], above 100 µM; in assay [8], 47.7 µM.

For `CCc1cccc(CC)c1NC(=O)CC1SC(N)=NC1=O` (stereo not given), the TGI in [2], in assay [3], in [5], in [6], in assay [7] and in [8] was above 100 µM throughout.

With `CC(=O)CC(=O)NC=O`, the TGI in assay [1], in [2], in assay [3], in [4], in [5] and in [6] was above 100 µM in each case. Moreover, the TGI in assay [7] and in assay [8] was above 100 µM in each case.

For `Cc1ccc(NC(=O)/C(=N\NC(N)=S)C(C#N)c2ccccc2C)cc1C` (stereo not given), the TGI in assay [1], in assay [2], in assay [3], in [4], in assay [5] and in [6] was above 100 µM each time. Also, the TGI in assay [7] and in assay [8] was above 100 µM throughout.

Regarding `C=C1c2[nH]c3ccccc3c2CC(C(=O)O)N1C(O)c1ccc(S(=O)(=O)O)cc1` (stereo not given), the TGI in assay [1], in assay [2], in assay [3], in assay [5], in [6] and in assay [7] was above 100 µM in each case. Besides, the TGI in assay [8] is above 100 µM.

`Cn1c(=O)c2[nH]c(CCCc3ccc([N+](=O)[O-])cc3)nc2n(C)c1=O`: the TGI in assay [9] is above 100 µM.

Take `N#Cc1c(-c2ccccc2)cc(-c2cccs2)c(C#N)c1N`: the TGI in assay [1], in assay [3], in assay [4], in assay [7] and in assay [8] was above 100 µM each time.

For `C=C1C(=O)OC2CC1C(OC(C)=O)C/C(C)=C/CC/C(C)=C\CCC2(C)O` (stereo not given), the TGI in assay [9] was 15.9 µM and 12.3 µM.

For the compound `C=CCC12CCC(=O)[C@@]1(C)CC=C(O)C2=O` (stereo not given in full), the TGI in [1], in assay [2], in assay [3], in [4], in assay [5] and in assay [7] was above 100 µM throughout.

As to `O=c1c(O)cc2c(O)oc3c(=O)c(O)c(O)c4c(O)oc1c2c43`, the TGI was above 100 µM in assay [1]; 67.7 µM in [2]; above 100 µM in assay [3]; above 100 µM in assay [4]; 25 µM in assay [5]; above 100 µM in [7].

Take `O=C([O-])CCc1ccccc1.O=C([O-])CCc1ccccc1.O=C([O-])CCc1ccccc1.O=C([O-])CCc1ccccc1.[Mo+2].[Mo+2]`: the GI50 in assay [1], in [2], in [4] and in assay [5] was above 100 µM in each case. Moreover, the TGI in assay [1], in assay [2], in assay [4] and in assay [5] was above 100 µM in each case.

`O=C(O)CNCCc1ccccc1` yielded a TGI in assay [9] above 100 µM.

On to `CS(=N)(=O)CCC(N)P(=O)(O)O` (stereo not given), for which, in assay [9], the TGI was above 100 µM.

Regarding `Fc1ccc(C2SCc3nc4ccccc4n32)cc1F` (stereo not given), the TGI in [1] was above 100 µM; in [2] it was 77.8 µM; in [3], 97.9 µM; in assay [4], above 100 µM; in [5], above 100 µM; in [6], above 100 µM. The TGI in assay [7] and in assay [8] was above 100 µM in each case.

For the compound `COC(=O)c1nc(C(=O)OC)c2c([nH]c3ccccc32)c1C(=O)OC`, the TGI in assay [1], in assay [2], in [3], in assay [7] and in [8] was above 100 µM throughout.

For the compound `N#CC(/C(=N/NC(N)=S)C(=O)Nc1cccc(Cl)c1)c1ccccc1` (stereo not given), the TGI in [1], in [2], in [3], in [4], in assay [5] and in assay [6] was above 100 µM throughout. In addition, the TGI in assay [8] is above 100 µM.

In assay [9], `O=[N+]([O-])/C=C/c1cc2ccc3ccccc3c2[nH]1` registered a TGI of 4.79 µM.

As for `O=C1C(=C([O-])c2ccccc2)C(=O)c2ccccc21.O=C1C(=C([O-])c2ccccc2)C(=O)c2ccccc21.[Co+2]`, the GI50 in assay [1], in assay [4] and in [5] was above 100 µM in each case. Besides, the TGI in assay [1], in [4] and in assay [5] was above 100 µM each time.

With `C=C(COC(C)=O)CC(/C=C(\C)CC/C=C(\C)CO)OC(C)=O` (stereo not given), the TGI in [1], in assay [3], in [4], in [5], in assay [6] and in assay [7] was above 100 µM each time. Also, the TGI in assay [8] was above 100 µM.
